Legend:
[1] = biological target: Proto-oncogene tyrosine-protein kinase Src (Homo sapiens, UniProt P12931); experiment: Inhibition against Src kinase
Rattus norvegicus = organism: Rattus norvegicus; experiment: Ability to inhibit the proliferation of c-Src transformed rat fibroblasts growing in suspension; type: functional
[2] = plasma concentration of compound at one hour after the of intraperitoneal administration of 50 mg/kg; type: ADME, organism-based; design: dose 50 mg/kg, route intraperitoneal; settings: ip
[3] = plasma concentration of compound at four hour after the of intraperitoneal administration of 50 mg/kg; type: ADME, organism-based; design: dose 50 mg/kg, route intraperitoneal; settings: ip
[4] = plasma concentration of compound at four hours after the of intraperitoneal administration of 50 mg/kg; type: ADME, organism-based; design: dose 50 mg/kg, route intraperitoneal; settings: ip
HT-29 = experiment: Inhibition of HT-29 cell monolayer proliferation at 5 uM; type: functional, cell-based; settings: Homo sapiens
[5] = biological target: Platelet-derived growth factor receptor (PDGFr) (Rattus norvegicus, UniProt P20786+Q05030); experiment: Inhibition of PDGF receptor transfected rat1A cell proliferation; type: functional

Proto-oncogene tyrosine-protein kinase Src, sequence (P12931 2-536 limits assumed): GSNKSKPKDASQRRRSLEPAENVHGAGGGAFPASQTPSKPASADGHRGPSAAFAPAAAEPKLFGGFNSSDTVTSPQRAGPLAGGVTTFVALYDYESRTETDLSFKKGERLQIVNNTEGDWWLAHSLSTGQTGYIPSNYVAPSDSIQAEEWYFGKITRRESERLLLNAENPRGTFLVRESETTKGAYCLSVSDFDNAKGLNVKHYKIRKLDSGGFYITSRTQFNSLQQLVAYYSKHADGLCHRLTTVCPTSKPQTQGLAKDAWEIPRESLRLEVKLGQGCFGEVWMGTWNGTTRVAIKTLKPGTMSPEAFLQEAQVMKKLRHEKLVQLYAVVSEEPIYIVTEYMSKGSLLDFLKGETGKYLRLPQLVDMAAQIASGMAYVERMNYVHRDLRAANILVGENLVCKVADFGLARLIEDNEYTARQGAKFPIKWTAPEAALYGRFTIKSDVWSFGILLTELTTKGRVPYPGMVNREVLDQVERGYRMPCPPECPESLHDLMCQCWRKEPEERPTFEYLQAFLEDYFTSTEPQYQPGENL

Row | Compound | IC50 [1] [nM] | IC50 (Rattus norvegicus) [nM] | also measured
1 | COc1cc(Nc2c(C#N)cnc3cc(OC)c(OC)cc23)c(Cl)cc1Cl | 4.3 | – | –
2 | COc1cc(Nc2c(C#N)cnc3cc(OC)c(OC)cc23)c(C)cc1Cl | 4 | – | –
3 | COc1cc(Nc2c(C#N)cnc3cc(OCCCN4CCNCC4)c(OC)cc23)c(Cl)cc1Cl | 1.1 | 1700 | –
4 | COc1cc(Nc2c(C#N)cnc3cc(OC)c(OCCCN4CCOCC4)cc23)c(Cl)cc1Cl | 28 | 1200 | –
5 | COc1cc(Nc2c(C#N)cnc3cc(OCCCN4CCCN(C)CC4)c(OC)cc23)c(Cl)cc1Cl | 1.4 | 350 | –
6 | COc1ccc(Cl)c(Nc2c(C#N)cnc3cc(OC)c(OC)cc23)c1 | 10 | – | –
7 | COc1cc(Nc2c(C#N)cnc3cc(OCCCCN4CCOCC4)c(OC)cc23)c(Cl)cc1Cl | 1.3 | 330 | –
8 | COc1cc(Nc2ccnc3cc(OC)c(OC)cc23)c(Cl)cc1Cl | 81 | – | –
9 | COc1cc(Nc2c(C#N)cnc3cc(OCCCN4CCOCC4)c(OC)cc23)c(Br)cc1Cl | 0.95 | 71 | –
10 | COc1ccc(Cl)c(Nc2c(C#N)cnc3cc(OCCCN4CCOCC4)c(OC)cc23)c1 | 1.6 | 150 | –
11 | COc1cc(Nc2c(C#N)cnc3cc(OC)c(OC)cc23)c(Cl)cc1C | 2.9 | – | –
12 | CCCOc1cc(Nc2c(C#N)cnc3cc(OC)c(OC)cc23)c(Cl)cc1Cl | > 5000 | – | –
13 | COc1cc(Nc2ncnc3cc(OC)c(OC)cc23)c(Cl)cc1Cl | 390 | – | –
14 | CCCN1CCN(CCCOc2cc3ncc(C#N)c(Nc4cc(OC)c(Cl)cc4Cl)c3cc2OC)CC1 | – | 160 | –
15 | COc1cc(Nc2c(C#N)cnc3cc(OCCCN4CCOCC4)c(OC)cc23)c(Cl)cc1C | 1.1 | 100 | –
16 | COc1cc(Nc2c(C#N)cnc3cc(OC)c(OC)cc23)c(C)cc1C | 4.6 | – | –
17 | COc1cc(Nc2c(C#N)cnc3cc(OC)c(OC)cc23)ccc1Cl | 120 | – | –
18 | COc1cc(Nc2c(C#N)cnc3cc(OCCCn4nccn4)c(OC)cc23)c(Cl)cc1Cl | 9.3 | 1900 | –
19 | COc1cc(Nc2c(C#N)cnc3cc(OCCCN(C)CCN(C)C)c(OC)cc23)c(Cl)cc1Cl | 2.3 | 650 | –
20 | COc1cc(Nc2c(C#N)cnc3cc(OCCCn4ccnn4)c(OC)cc23)c(Cl)cc1Cl | 1.9 | 920 | concentration at 1 h [2]: 1300 ng/mL; concentration at 4 h [3]: 300 ng/mL

Row | Compound | IC50 [1] [nM] | IC50 (Rattus norvegicus) [nM] | also measured
21 | COc1cc(Nc2c(C#N)cnc3cc(OCCCCCN4CCOCC4)c(OC)cc23)c(Cl)cc1Cl | 2.5 | 320 | –
22 | CCN1CCN(CCCOc2cc3ncc(C#N)c(Nc4cc(OC)c(Cl)cc4Cl)c3cc2OC)CC1 | – | 130 | –
23 | COc1cc(Nc2c(C#N)cnc3cc(OCCCN4CCOCC4)c(OC)cc23)c(C)cc1C | 1.7 | 160 | –
24 | COc1cc(Nc2c(C#N)cnc3cc(OCCCN4CCOCC4)c(OC)cc23)c(Cl)cc1Cl | 0.8 | 140 | concentration at 1 h [2]: 100 ng/mL; concentration at 4 h [4]: 100 ng/mL
25 | COc1cc(Nc2c(C#N)cnc3cc(OC)c(OC)cc23)c(F)cc1Cl | 66 | – | –
26 | COc1cc(Nc2c(C#N)cnc3cc(OCCCN4CCCCC4)c(OC)cc23)c(Cl)cc1Cl | 1.2 | 150 | –
27 | COc1cc(Nc2c(C#N)cnc3cc(OCCCN4CCN(CCO)CC4)c(OC)cc23)c(Cl)cc1Cl | 0.76 | 610 | –
28 | CCOc1cc(Nc2c(C#N)cnc3cc(OC)c(OC)cc23)c(Cl)cc1C | > 5000 | – | –
29 | COc1cc2ncc(C#N)c(Nc3cc(O)c(Cl)cc3Cl)c2cc1OC | 190 | – | –
30 | COc1cc(Nc2c(C#N)cnc3cc(OC)c(OC)cc23)c(Br)cc1Cl | 3 | – | –
31 | COc1cc(Nc2c(C#N)cnc3cc(OCCN4CCOCC4)c(OC)cc23)c(Cl)cc1Cl | 2.3 | 190 | –
32 | CCOc1cc(Nc2c(C#N)cnc3cc(OC)c(OC)cc23)c(Cl)cc1Cl | 1200 | – | –
33 | COc1cc(Nc2c(C#N)cnc3cc(OCCCNCCN4CCOCC4)c(OC)cc23)c(Cl)cc1Cl | 3 | 1200 | –
34 | COc1cc(Nc2c(C#N)cnc3cc(OCCCN4CC(C)N(C)C(C)C4)c(OC)cc23)c(Cl)cc1Cl (stereo not drawn) | 1.4 | 220 | –
35 | COc1cc(Nc2c(C#N)cnc3cc(OCCCn4ccnc4)c(OC)cc23)c(Cl)cc1Cl | 2.1 | 1400 | –
36 | COc1cc(Nc2c(C#N)cnc3cc(OCCCN4CCOCC4)c(OC)cc23)c(C)cc1Cl | 1.2 | 150 | –
37 | COc1cc(Nc2c(C#N)cnc3cc(OCCCN4CCC(O)CC4)c(OC)cc23)c(Cl)cc1Cl | 0.64 | 840 | –
38 | COc1cc2c(Nc3ccc(Cl)cc3Cl)c(C#N)cnc2cc1OCCCN1CCOCC1 | – | 940 | –
39 | COc1cc(Nc2c(C#N)cnc3cc(OCCCN4CCN(C)CC4)c(OC)cc23)c(Cl)cc1Cl [BOSUTINIB] | – | 100 | concentration at 1 h [2]: 3000 ng/mL; concentration at 4 h [3]: 900 ng/mL; IC50 (HT-29): 5000 nM; IC50 [5]: 4000 nM

From ChEMBL document CHEMBL1134270, “Optimization of 4-phenylamino-3-quinolinecarbonitriles as potent inhibitors of Src kinase activity” (J Med Chem, 2001)
